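48-hour exposure; five concentrations; linearly interpolated endpoints. GI50 = concentration required for 50% inhibition of growth.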 Activity calls are given as the source filed them. No stated cut-off is given here; in the data, active = GI50 up to about 1.1 µM and inactive = higher.
Experiments:
Experiment in all cases: inhibition of tumour cell growth, NCI panel, 48 h
BT-549 = test system: BT-549
HT-29 = test system: HT-29
RXF 393 = test system: RXF 393
MDA-N = test system: MDA-N
ACHN = test system: ACHN
UACC-257 = test system: UACC-257
MDA-MB-231 = test system: MDA-MB-231
SF-539 = test system: SF-539
EKVX = test system: EKVX
HCC 2998 = test system: HCC 2998
RPMI-8226 = test system: RPMI-8226
COLO 205 = test system: COLO 205
SK-MEL-28 = test system: SK-MEL-28
SR = test system: SR
SK-MEL-5 = test system: SK-MEL-5
T47D = test system: T47D
NCI-H226 = test system: NCI-H226
SK-MEL-2 = test system: SK-MEL-2
CAKI-1 = test system: CAKI-1

Measured: GI50

COc1ccc(C2CC(=O)Oc3ccccc3O2)cc1 (stereo unspecified)
inactive: BT-549 > 100 µM | HT-29 > 100 µM | RXF 393 > 100 µM | MDA-N 98.2 µM | ACHN > 100 µM | UACC-257 > 100 µM | MDA-MB-231 > 100 µM | SF-539 > 100 µM | EKVX > 100 µM | HCC 2998 > 100 µM | RPMI-8226 > 100 µM | COLO 205 > 100 µM | SK-MEL-28 > 100 µM | SR 52.7 µM | SK-MEL-5 > 100 µM | T47D > 100 µM | NCI-H226 > 100 µM

CC(=O)c1cc2c(Br)cccc2oc1=O
inactive: BT-549 79.1 µM | HT-29 > 100 µM | RXF 393 > 100 µM | MDA-N 52 µM | ACHN > 100 µM | UACC-257 > 100 µM | MDA-MB-231 > 100 µM | SF-539 > 100 µM | EKVX > 100 µM | HCC 2998 > 100 µM | SK-MEL-2 > 100 µM | RPMI-8226 > 100 µM | COLO 205 > 100 µM | CAKI-1 > 100 µM | SK-MEL-28 > 100 µM | SR 46.8 µM | SK-MEL-5 > 100 µM | T47D > 100 µM | NCI-H226 > 100 µM

C[C@@H]1CC[C@@]2(C)[C@H](C)/C(=C\COC(=O)/C=C/c3ccc(O)c(O)c3)CC[C@@]12C [NAVICULYL CAFFEATE]
inactive: BT-549 14.6 µM | HT-29 3.94 µM | RXF 393 15.7 µM | MDA-N 3.42 µM | ACHN 4.19 µM | UACC-257 11.8 µM | MDA-MB-231 7.83 µM | SF-539 4.83 µM | EKVX 15 µM | HCC 2998 7.67 µM | SK-MEL-2 12.6 µM | RPMI-8226 2.21 µM | COLO 205 3.61 µM | CAKI-1 4.58 µM | SK-MEL-28 10.8 µM | SR 2.41 µM | SK-MEL-5 5.15 µM | T47D 12.6 µM | NCI-H226 6.05 µM

C[n+]1c2ccccc2c2/c(=C\C#N)c3ccccc3n21
inactive: BT-549 3.42 µM | HT-29 3.82 µM | RXF 393 4.85 µM | MDA-N 3.7 µM | ACHN 4.91 µM | UACC-257 3.06 µM | MDA-MB-231 4.43 µM | SF-539 4.82 µM | EKVX 2.44 µM | HCC 2998 1.61 µM | SK-MEL-2 3.49 µM | RPMI-8226 3.28 µM | COLO 205 1.56 µM | CAKI-1 23.8 µM | SK-MEL-28 9.25 µM | SR 3.91 µM | SK-MEL-5 6.53 µM | T47D 5.73 µM | NCI-H226 3.81 µM

Nc1nc(Cl)nc(NCc2ccccc2)n1
inactive: BT-549 > 100 µM | HT-29 > 100 µM | RXF 393 > 100 µM | MDA-N > 100 µM | ACHN > 100 µM | UACC-257 > 100 µM | MDA-MB-231 > 100 µM | SF-539 > 100 µM | EKVX > 100 µM | HCC 2998 > 100 µM | SK-MEL-2 > 100 µM | RPMI-8226 > 100 µM | COLO 205 > 100 µM | CAKI-1 > 100 µM | SK-MEL-28 > 100 µM | SR 67.8 µM | SK-MEL-5 > 100 µM | T47D > 100 µM | NCI-H226 > 100 µM

O=C1C=CC(=O)c2c1ccc1c3ccccc3n(Cc3cccc([N+](=O)[O-])c3)c21
inactive: BT-549 40.1 µM | HT-29 30.4 µM | RXF 393 22.5 µM | MDA-N 16 µM | ACHN 18.2 µM | UACC-257 23 µM | MDA-MB-231 24.2 µM | SF-539 > 54 µM | EKVX > 100 µM | HCC 2998 > 80.7 µM | SK-MEL-2 39.8 µM | RPMI-8226 17.8 µM | COLO 205 14.3 µM | CAKI-1 14.7 µM | SK-MEL-28 > 43.6 µM | SR 12.8 µM | SK-MEL-5 53.3 µM | T47D 26.4 µM | NCI-H226 99.3 µM

CN(C)C=O.O=C(Nc1nnn[nH]1)c1nc(O)cc(-c2ccccc2)n1
inactive: BT-549 > 100 µM | HT-29 > 100 µM | RXF 393 > 100 µM | MDA-N > 100 µM | ACHN > 100 µM | UACC-257 > 100 µM | MDA-MB-231 > 100 µM | SF-539 > 100 µM | EKVX > 100 µM | HCC 2998 > 100 µM | SK-MEL-2 > 100 µM | RPMI-8226 > 100 µM | COLO 205 > 100 µM | CAKI-1 > 100 µM | SK-MEL-28 > 100 µM | SR > 100 µM | SK-MEL-5 > 100 µM | T47D > 100 µM | NCI-H226 > 100 µM
